Our source for the GI50 and TGI values is PubChem BioAssay (NCI).

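Method: 48-hour compound exposure of cells in 96-well plates, five concentrations, linear interpolation of endpoints. At the GI50, growth is halved. Definition used: TGI = concentration required for complete inhibition of growth.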

Test systems include HCC-2998 colon; OVCAR-3 ovarian; HOP-92 NSCLC; NCI-H460 lung; SNB-19 CNS; LOX IMVI melanoma; CCRF-CEM leukemia; EKVX NSCLC; SNB-75 CNS; SN12C renal.
Holding throughout (experiment): NCI-60 cell line screen, 48 h

In the case of `COc1cc(/C=C/C(=O)c2cccc(-n3cc(-c4ccccc4)[nH]c3=O)c2)cc(OC)c1OC`, the GI50 with HCC-2998 colon is 1.26 µM; in the assay on OVCAR-3 ovarian, 1.23 µM; in the assay on HOP-92 NSCLC, 10.8 µM; with NCI-H460 lung, 1.4 µM; with SNB-19 CNS it was 2.35 µM; with LOX IMVI melanoma it was 0.489 µM. For the same compound, the GI50 with CCRF-CEM leukemia was 0.64 µM; with EKVX NSCLC, 2.3 µM; in the assay with SNB-75 CNS it was 4.47 µM; with SN12C renal it was 2.09 µM. Further, the TGI in the assay with HCC-2998 colon is 2.51 µM; in the assay with OVCAR-3 ovarian it was 3.14 µM; in the assay on HOP-92 NSCLC it was 35.6 µM; with NCI-H460 lung it was 2.69 µM; in the assay with SNB-19 CNS it was 5.69 µM; with LOX IMVI melanoma, 1.67 µM. In addition, the TGI with CCRF-CEM leukemia was greater than 100 µM; in the assay with EKVX NSCLC, 11.4 µM; with SNB-75 CNS, 16.8 µM; in the assay with SN12C renal, 10.7 µM.
As to `O=S(=O)(NCCCNc1cc(-c2cn(-c3ccccc3)nc2-c2cccc(O)c2)ccn1)c1ccc(C(F)(F)F)cc1`, the GI50 in the assay on HCC-2998 colon is 1.92 µM; in the assay on OVCAR-3 ovarian, 1.92 µM; with HOP-92 NSCLC, 1.56 µM; in the assay with NCI-H460 lung, 1.86 µM; with SNB-19 CNS it was 2.04 µM; in the assay on LOX IMVI melanoma it was 1.67 µM. The GI50 was 2.45 µM in the assay with EKVX NSCLC, 1.45 µM with SNB-75 CNS and 1.81 µM in the assay with SN12C renal. The TGI in the assay with HCC-2998 colon worked out at 3.53 µM; in the assay on OVCAR-3 ovarian, 4.03 µM; in the assay on HOP-92 NSCLC, 3.9 µM; in the assay on NCI-H460 lung, 3.86 µM; with SNB-19 CNS, 5.55 µM; in the assay with LOX IMVI melanoma, 3.12 µM. The TGI in the assay on EKVX NSCLC amounted to 10.7 µM; in the assay with SNB-75 CNS, 5.06 µM; in the assay with SN12C renal, 3.67 µM.
For the compound `CN(C)CCNC(=O)c1cc2c3cc(Cl)ccc3[nH]c2c2ncccc12`, the GI50 is 11.1 µM in the assay with OVCAR-3 ovarian; 2.36 µM in the assay on HOP-92 NSCLC; 2.57 µM with NCI-H460 lung; 4.52 µM in the assay on SNB-19 CNS; 1.51 µM in the assay on LOX IMVI melanoma; 2.09 µM in the assay on CCRF-CEM leukemia. The GI50 with EKVX NSCLC is 2.8 µM; in the assay with SNB-75 CNS, 3.85 µM; with SN12C renal, 2.9 µM. For the same compound, the TGI was determined as 29.6 µM in the assay on OVCAR-3 ovarian; 11.2 µM in the assay with HOP-92 NSCLC; 10.7 µM with NCI-H460 lung; 19.7 µM in the assay on SNB-19 CNS; 2.92 µM in the assay with LOX IMVI melanoma; 5.47 µM in the assay on CCRF-CEM leukemia. Further, the TGI stood at 12.7 µM with EKVX NSCLC, 15.8 µM in the assay with SNB-75 CNS and 13.4 µM with SN12C renal.
Take `Cn1cc(C2NC(=O)c3ccccc3N2)c2ccccc21` (configuration not stated): the TGI was 7.45 µM in the assay on HCC-2998 colon; 2.03 µM in the assay on OVCAR-3 ovarian; greater than 100 µM in the assay on HOP-92 NSCLC; greater than 42.8 µM in the assay on NCI-H460 lung; greater than 91 µM in the assay with SNB-19 CNS; greater than 89.8 µM in the assay with LOX IMVI melanoma. Also, the TGI in the assay on CCRF-CEM leukemia is 0.877 µM; in the assay on EKVX NSCLC, greater than 44.1 µM; in the assay with SN12C renal it was greater than 100 µM.
For the compound `C=CCC1(O)c2ccccc2C(=O)c2c(OCC(=O)OCC)ccc(OCC(=O)OCC)c21` (configuration not stated), the GI50 was 44.9 µM in the assay on HCC-2998 colon; greater than 100 µM in the assay with OVCAR-3 ovarian; 41.9 µM in the assay with HOP-92 NSCLC; 84.9 µM in the assay on NCI-H460 lung; greater than 100 µM in the assay on SNB-19 CNS; greater than 100 µM in the assay on LOX IMVI melanoma. In addition, the GI50 was greater than 100 µM with CCRF-CEM leukemia, greater than 100 µM with EKVX NSCLC and 87.6 µM in the assay on SN12C renal. For the same compound, the TGI in the assay on HCC-2998 colon, with OVCAR-3 ovarian, in the assay with HOP-92 NSCLC, in the assay on NCI-H460 lung, in the assay with SNB-19 CNS and in the assay with LOX IMVI melanoma was greater than 100 µM each time. Besides, the TGI with CCRF-CEM leukemia, in the assay with EKVX NSCLC and in the assay with SN12C renal was greater than 100 µM each time.
On to `COc1nc(NC2OC(COC(C)=O)C(OC(C)=O)C(OC(C)=O)C2OC(C)=O)c(N=CC=Nc2c(NC3OC(COC(C)=O)C(OC(C)=O)C(OC(C)=O)C3OC(C)=O)nc(OC)[nH]c2=O)c(=O)[nH]1` (configuration not stated), for which the TGI in the assay with HCC-2998 colon, with OVCAR-3 ovarian, in the assay with HOP-92 NSCLC, in the assay with SNB-19 CNS, in the assay on LOX IMVI melanoma and in the assay with CCRF-CEM leukemia was greater than 100 µM in each case. The TGI in the assay on EKVX NSCLC, in the assay with SNB-75 CNS and in the assay on SN12C renal was greater than 100 µM throughout.
For the compound `COC(=O)C(=O)C(C(=O)C(=O)Nc1ccc(Cl)c(Cl)c1)c1nc2ccc(C(=O)c3ccccc3)cc2[nH]c1=O` (configuration not stated), the TGI in the assay with OVCAR-3 ovarian, in the assay with HOP-92 NSCLC, in the assay on SNB-19 CNS, in the assay on LOX IMVI melanoma, with CCRF-CEM leukemia and in the assay with EKVX NSCLC was greater than 100 µM each time. In addition, the TGI in the assay with SNB-75 CNS and with SN12C renal was greater than 100 µM each time.
With `O=C(CCc1n[nH]c(=S)o1)Nc1cc(Cl)ccc1Cl`, the TGI in the assay with HCC-2998 colon, with OVCAR-3 ovarian, in the assay with HOP-92 NSCLC, with NCI-H460 lung, with SNB-19 CNS and in the assay on CCRF-CEM leukemia was greater than 100 µM in each case. Besides, the TGI in the assay with EKVX NSCLC, in the assay with SNB-75 CNS and with SN12C renal was greater than 100 µM throughout.
Consider `NS(=O)(=O)c1ccc(N(/C=C/C(=O)C(F)(F)F)CC(=O)c2ccc(F)cc2)cc1`, for which the GI50 was 17.7 µM with HCC-2998 colon; 19.7 µM in the assay with OVCAR-3 ovarian; 21.3 µM in the assay with HOP-92 NSCLC; 28.1 µM in the assay on NCI-H460 lung; 53.8 µM in the assay with SNB-19 CNS; 13.8 µM with LOX IMVI melanoma. For the same compound, the GI50 is 15.6 µM with CCRF-CEM leukemia, 29.7 µM with EKVX NSCLC and 19.4 µM in the assay on SN12C renal. The TGI with HCC-2998 colon is 33.8 µM; in the assay with OVCAR-3 ovarian it was 47.3 µM; with HOP-92 NSCLC, 60.9 µM; in the assay with NCI-H460 lung, greater than 100 µM; with SNB-19 CNS it was greater than 100 µM; in the assay with LOX IMVI melanoma, 34.6 µM. Further, the TGI in the assay on CCRF-CEM leukemia is 41.5 µM; in the assay with EKVX NSCLC it was 87.2 µM; in the assay on SN12C renal, 45.3 µM.
